US11739089B2, “Acetamido-phenyltetrazole derivatives and methods of using the same” (Athenex, Inc., priority 2020, dated 2023)
pEC50, pIC50: −log10 of the molar value. Read-outs that look alike come from different tables or passages of the source.

How the values were obtained:
P-glycoprotein = P-glycoprotein (Homo sapiens (Human), UniProt P08183); experiment: P-glycoprotein inhibitory activity: MTT cell growth assay in P-gp overexpressing MES-SA/DX5 cells with docetaxel or paclitaxel; type: cell-based; details: 3 days, with 100 nM docetaxel or 200 nM paclitaxel, MTT readout
P-glycoprotein, sequence (P08183 whole entry): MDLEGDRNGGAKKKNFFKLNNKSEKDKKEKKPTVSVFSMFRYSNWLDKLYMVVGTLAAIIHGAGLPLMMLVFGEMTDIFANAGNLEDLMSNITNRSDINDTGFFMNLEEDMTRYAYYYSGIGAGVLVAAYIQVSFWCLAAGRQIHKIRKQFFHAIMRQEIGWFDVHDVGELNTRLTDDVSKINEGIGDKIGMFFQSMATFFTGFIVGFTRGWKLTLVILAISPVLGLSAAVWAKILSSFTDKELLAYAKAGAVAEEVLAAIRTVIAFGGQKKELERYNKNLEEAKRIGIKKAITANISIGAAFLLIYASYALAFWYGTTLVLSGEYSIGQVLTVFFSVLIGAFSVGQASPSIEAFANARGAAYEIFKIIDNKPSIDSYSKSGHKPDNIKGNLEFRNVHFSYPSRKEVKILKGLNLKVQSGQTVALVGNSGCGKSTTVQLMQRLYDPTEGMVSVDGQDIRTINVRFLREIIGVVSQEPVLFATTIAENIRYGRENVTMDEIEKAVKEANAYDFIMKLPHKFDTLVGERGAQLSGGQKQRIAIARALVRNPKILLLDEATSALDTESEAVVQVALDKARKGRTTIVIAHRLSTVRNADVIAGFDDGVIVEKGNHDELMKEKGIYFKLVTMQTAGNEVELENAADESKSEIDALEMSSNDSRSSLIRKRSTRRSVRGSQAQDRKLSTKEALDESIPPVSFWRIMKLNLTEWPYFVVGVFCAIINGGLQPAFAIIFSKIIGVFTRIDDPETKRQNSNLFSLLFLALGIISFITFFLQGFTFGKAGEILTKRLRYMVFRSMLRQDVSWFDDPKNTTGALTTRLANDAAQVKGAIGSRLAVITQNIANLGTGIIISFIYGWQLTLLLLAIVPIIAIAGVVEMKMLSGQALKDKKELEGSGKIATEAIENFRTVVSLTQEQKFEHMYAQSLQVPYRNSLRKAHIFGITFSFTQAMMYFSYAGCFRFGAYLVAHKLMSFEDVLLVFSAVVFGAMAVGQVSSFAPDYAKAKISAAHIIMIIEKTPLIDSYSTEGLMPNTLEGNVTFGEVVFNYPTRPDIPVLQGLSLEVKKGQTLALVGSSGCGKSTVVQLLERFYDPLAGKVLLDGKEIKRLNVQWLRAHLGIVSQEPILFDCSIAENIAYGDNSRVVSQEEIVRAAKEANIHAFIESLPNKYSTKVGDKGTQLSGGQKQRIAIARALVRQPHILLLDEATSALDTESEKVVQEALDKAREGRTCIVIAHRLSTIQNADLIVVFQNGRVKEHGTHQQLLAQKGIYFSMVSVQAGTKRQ
Experimental: P-glycoprotein inhibitory activity may be determined by an assay wherein P-glycoprotein overexpressed cell lines are treated with increasing concentrations of a compound of the present disclosure and therapeutic agent for three days, followed by an MTT assay.
Cell growth percentage may be calculated with the following equation: Cell growth percentage=(T−T0)/(C−T0)×100%, wherein T is OD of the test well exposure to Compound; C is OD of the control well without Compound treatment; and T0 is OD at time zero.
A P-glycoprotein overexpressing cell line derived from the human uterine sarcoma cell line MES-SA (i.e., MES-SA/DX5 cells (ATCC)) was seeded by stepwise exposures to increasing concentrations of doxorubicin, in a 96-well plate at 6,500 cells/100 μL media (McCoy's 5A+10% FBS) in each well. The cells were incubated overnight at 37° C. 5% CO2. Compounds were diluted in a separate 96-well plate to yield 11× of final concentration (final Compound concentrations were 0, 5, 20, 80, 320, and 1280 nM and the final docetaxel concentration was 100 nM or the final paclitaxel concentration was 200 nM). DMSO was used as a negative control and known P-glycoprotein inhibitor, encequidar methane sulfonic acid monohydrate (HM30181A), was used as a positive control. 10 μL of the 11× dilutions was added to the appropriate well, P-glycoprotein inhibition wells comprised Compound+docetaxel (or Compound+paclitaxel). The compound toxicity wells comprised 1280 nM Compound+10 μL of culture media. Treated the cells were incubated for 3 days at 37° C. 5% CO2.
To value (reflecting the starting number of cells upon Compound treatment) of 3 wells of cells was determined by performing the following steps 1-4 as described below.
1. 10 μL MTT (5 mg/mL in PBS) was added to each well and incubated for 1.5 hours at 37° C. 5% CO2.
2. Culture media was removed and 100 μL of DMSO was added to each well.
3. The plate was gently shook until all purple MTT formazan crystals were dissolved. OD540 was then measured using microplate reader.
4. Cell growth percentage was calculated with the following equation: Cell growth percentage=(T−T0)/(C−T0)×100%, wherein T is OD of the test well exposure to Compound; C is OD of the control well without Compound treatment; and T0 is OD at time zero.

CYP3A4 = CYP3A4 (Homo sapiens (Human), UniProt P08684); experiment: CYP3A4 inhibitory activity: Luciferin-IPA (P450-Glo) assay with human liver microsome
CYP3A4, sequence (P08684 whole entry): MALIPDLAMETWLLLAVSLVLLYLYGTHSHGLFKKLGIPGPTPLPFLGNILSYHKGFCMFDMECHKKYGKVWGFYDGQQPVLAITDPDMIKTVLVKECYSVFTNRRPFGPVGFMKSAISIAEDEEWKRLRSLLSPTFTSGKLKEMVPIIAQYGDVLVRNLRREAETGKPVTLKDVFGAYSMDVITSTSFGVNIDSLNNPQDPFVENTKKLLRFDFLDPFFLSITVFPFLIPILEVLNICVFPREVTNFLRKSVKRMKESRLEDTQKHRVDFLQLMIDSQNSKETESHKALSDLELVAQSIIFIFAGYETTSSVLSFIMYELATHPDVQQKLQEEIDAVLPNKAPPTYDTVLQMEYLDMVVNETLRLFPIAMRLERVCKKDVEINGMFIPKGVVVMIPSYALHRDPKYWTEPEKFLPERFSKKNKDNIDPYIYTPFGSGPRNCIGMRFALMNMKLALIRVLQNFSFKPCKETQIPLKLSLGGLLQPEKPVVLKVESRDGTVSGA
Experimental: Cytochrome P450 activity may be determined by a P450-Glo™ assay (Promega) with human liver microsomes wherein the compounds of the present disclosure are dosed at different concentrations in buffer and incubated. Dose-response curve and IC50 data may be obtained and fit to a nonlinear regression model using GraphPad Prism software (v6.0).
The standard final Compound concentrations were 37, 111, 333, 1000, and 3000 nM. 12.5 μL of the Compound dilutions were transferred to a white 96-well plate. 1450 μL (enough for a whole plate) of 4× assay buffer (400 mM potassium phosphate buffer (10 mL 1M potassium phosphate buffer: 8.02 mL 1M K2HPO4+1.98 mL 1M KH2PO4 (1.4 g K2HPO4+0.27 g KH2PO4 in 10 mL H2O), 32 μM Luciferin-IPA (Promega V9002)) 580 μl of 1 M K3PO4 buffer, 870 μL H2O, 14 μL of 3 mM Luciferin-IPA, and 18 μL of human liver microsome (Sigma M0317-1VL) was made. 12.5 μL of 4× assay buffer was added to each well. For the well of blank control, 12.5 μL of 4× assay buffer without liver microsome was added. The plate was incubated at room temperature for 15 minutes. 2.75 mL NADPH buffer was made as follows: 2.42 mL H2O, 275 μL solution A and 55 μL solution B (NADPH regeneration system, Promega V9510). 25 μL of the buffer was added to each well. The plates were incubated at 37° C. for 11 minutes. 50 μL of luciferin detection reagent (Promega V9002) was added and the plates were incubated at room temperature for 5 minutes. The plate was read with a luminometer.
The dose-response curve and IC50 were obtained by fitting data to nonlinear regression model using GraphPad Prism software (v6.0).

| Compound | pEC50 (P-glycoprotein) | pIC50 (CYP3A4; human, microsomes, 11 min) | pIC50 (CYP3A4) |
| --- | --- | --- | --- |
| COc1cc(NC(=O)c2cc(=O)c3ccccc3o2)c(-c2nnn(-c3ccc(CCN4CCn5cncc5C4)cc3)n2)cc1OC [Compound 1, A-(2-(2-(4-(2-(5,6-Dihydroimidazo[1,5-a]pyrazin-7(8H)-yl)ethyl)phenyl)-2H-tetrazol-5-yl)-4,5-dimethoxyphenyl)-4-oxo-4H-chromene-2-carboxamide] | < 6.00 | < 6.00 |  |
| COc1cc(NC(=O)c2cnc3ccccc3c2)c(-c2nnn(-c3ccc(CCN4CCc5cnccc5C4)cc3)n2)cc1OC [Compound 2, N-(2-(2-(4-(2-(3,4-Dihydro-2,6-naphthyridin-2(1H)-yl)ethyl)phenyl)-2H-tetrazol-5-yl)-4,5-dimethoxyphenyl)quinoline-3-carboxamide] | 6.60 to 7.00 |  | 6.60 to 7.00 |
| COc1cc(NC(=O)c2cc(=O)c3ccccc3o2)c(-c2nnn(-c3ccc(CCN(Cc4cccc(-n5ccnc5)c4)Cc4ccc5c(cnn5C)c4)cc3)n2)cc1OC [Compound 3, N-(2-(2-(4-(2-((3-(1H-Imidazol-1-yl)benzyl)((1-methyl-1H-indazol-5-yl)methyl)amino)ethyl)phenyl)-2H-tetrazol-5-yl)-4,5-dimethoxyphenyl)-4-oxo-4H-chromene-2-carboxamide] | < 6.00 |  | 6.00 to 6.30 |
| COc1cc(NC(=O)c2cnc3ccccc3c2)c(-c2nnn(-c3ccc(CCN(Cc4cccc(-n5ccnc5)c4)Cc4ccc5c(cnn5C)c4)cc3)n2)cc1OC [Compound 4, N-(2-(2-(4-(2-((3-(1H-Imidazol-1-yl)benzyl)((1-methyl-1H-indazol-5-yl)methyl)amino)ethyl)phenyl)-2H-tetrazol-5-yl)-4,5-dimethoxyphenyl)quinoline-3-carboxamide] | 6.00 to 6.30 |  | 6.00 to 6.30 |
| COc1cc(NC(=O)c2cc(=O)c3ccc(C)cc3o2)c(-c2nnn(-c3ccc(CCN(Cc4cccc(-n5ccnc5)c4)Cc4ccc5c(cnn5C)c4)cc3)n2)cc1OC [Compound 5, N-(2-(2-(4-(2-((3-(1H-Imidazol-1-yl)benzyl)((1-methyl-1H-indazol-5-yl)methyl)amino)ethyl)phenyl)-2H-tetrazol-5-yl)-4,5-dimethoxyphenyl)-7-methyl-4-oxo-4H-chromene-2-carboxamide] | < 6.00 | < 6.00 |  |
| COc1cc(NC(=O)c2cc(=O)c3ccccc3o2)c(-c2nnn(-c3ccc(CCN4CCc5ccncc5C4)cc3)n2)cc1OC [Compound 6, N-(2-(2-(4-(2-(3,4-Dihydro-2,7-naphthyridin-2(1H)-yl)ethyl)phenyl)-2H-tetrazol-5-yl)-4,5-dimethoxyphenyl)-4-oxo-4H-chromene-2-carboxamide] | 6.60 to 7.00 | < 6.00 |  |
| COc1cc(NC(=O)c2cc(=O)c3ccccc3o2)c(-c2nnn(-c3ccc(CCN4CCc5cnccc5C4)cc3)n2)cc1OC [Compound 7, N-(2-(2-(4-(2-(3,4-Dihydro-2,6-naphthyridin-2(1H)-yl)ethyl)phenyl)-2H-tetrazol-5-yl)-4,5-dimethoxyphenyl)-4-oxo-4H-chromene-2-carboxamide] | 6.60 to 7.00 |  | 6.00 to 6.30 |
| COc1cc(NC(=O)c2cc(=O)c3ccccc3o2)c(-c2nnn(-c3ccc(CCN4CCc5cc(-n6ccnc6)ccc5C4)cc3)n2)cc1OC [Compound 8, N-(2-(2-(4-(2-(6-(1H-Imidazol-1-yl)-3,4-dihydroisoquinolin-2(1H)-yl)ethyl)phenyl)-2H-tetrazol-5-yl)-4,5-dimethoxyphenyl)-4-oxo-4H-chromene-2-carboxamide] | < 6.00 |  | 6.60 to 7.00 |
| COc1cc(NC(=O)c2cnc3ccccc3n2)c(-c2nnn(-c3ccc(CCN4CCc5cnccc5C4)cc3)n2)cc1OC [Compound 9, N-(2-(2-(4-(2-(3,4-Dihydro-2,6-naphthyridin-2(1H)-yl)ethyl)phenyl)-2H-tetrazol-5-yl)-4,5-dimethoxyphenyl)quinoxaline-2-carboxamide] | < 6.00 |  | 6.00 to 6.30 |
| COc1cc(NC(=O)c2cc(=O)c3ccccc3o2)c(-c2nnn(-c3ccc(CCN4CCc5ccc(-n6ccnc6)cc5C4)cc3)n2)cc1OC [Compound 10, N-(2-(2-(4-(2-(7-(1H-Imidazol-1-yl)-3,4-dihydroisoquinolin-2(1H)-yl)ethyl)phenyl)-2H-tetrazol-5-yl)-4,5-dimethoxyphenyl)-4-oxo-4H-chromene-2-carboxamide] | < 6.00 |  | 6.30 to 6.60 |
| COc1cc(NC(=O)c2cc(=O)c3ccccc3o2)c(-c2nnn(-c3ccc(CCN4CCc5cnccc5C4)cc3)n2)cc1OCc1ccccc1 [Compound 12, N-(4-(Benzyloxy)-2-(2-(4-(2-(3,4-dihydro-2,6-naphthyridin-2(1H)-yl)ethyl)phenyl)-2H-tetrazol-5-yl)-5-methoxyphenyl)-4-oxo-4H-chromene-2-carboxamide] | > 7.00 | < 6.00 |  |
| COc1cc(NC(=O)c2cnc3ccccc3c2)c(-c2nnn(-c3ccc(CCN4CCc5cnccc5C4)cc3)n2)cc1OCc1ccccc1 [Compound 13, N-(4-(Benzyloxy)-2-(2-(4-(2-(3,4-dihydro-2,6-naphthyridin-2(1H)-yl)ethyl)phenyl)-2H-tetrazol-5-yl)-5-methoxyphenyl)quinoline-3-carboxamide] | > 7.00 |  | 6.00 to 6.30 |
| COc1cc(NC(=O)c2cc(=O)c3ccccc3o2)c(-c2nnn(-c3ccc(CCN4CCc5cc(OC)c(OCCn6ccnc6)cc5C4)cc3)n2)cc1OC [Compound 14, N-(2-(2-(4-(2-(7-(2-(1H-Imidazol-1-yl)ethoxy)-6-methoxy-3,4-dihydroisoquinolin-2(1H)-yl)ethyl)phenyl)-2H-tetrazol-5-yl)-4,5-dimethoxyphenyl)-4-oxo-4H-chromene-2-carboxamide] | < 6.00 |  |  |
| COC(=O)c1ccc(-c2nnn(-c3ccc(CCN(C)Cc4ccc5c(cnn5C)c4)cc3)n2)c(NC(=O)c2cc(=O)c3ccccc3o2)c1 [Compound 15, Methyl 4-(2-(4-(2-(methyl((1-methyl-1H-indazol-5-yl)methyl)amino)ethyl)phenyl)-2H-tetrazol-5-yl)-3-(4-oxo-4H-chromene-2-carboxamido)benzoate] | > 7.00 |  | < 6.00 |
| COc1cc(NC(=O)c2cnc3ccccc3c2)c(-c2nnn(-c3ccc(CCN4CCc5cnccc5C4)cc3)n2)cc1OCc1ccccc1 [Compound 17, N-(4-(Benzyloxy)-2-(2-(4-(2-(3,4-dihydro-2,6-naphthyridin-2(1H)-yl)ethyl)phenyl)-2H-tetrazol-5-yl)-5-methoxyphenyl)quinoline-3-carboxamide] |  | 6.00 to 6.30 |  |
| COc1cc(NC(=O)c2cc(=O)c3ccccc3o2)c(-c2nnn(-c3ccc(CCN4CCn5cncc5C4)cc3)n2)cc1OCc1ccccc1 [Compound 18, N-(4-(Benzyloxy)-2-(2-(4-(2-(5,6-dihydroimidazo[1,5-a]pyrazin-7(8H)-yl)ethyl)phenyl)-2H-tetrazol-5-yl)-5-methoxyphenyl)-4-oxo-4H-chromene-2-carboxamide] | > 7.00 | < 6.00 |  |
| COc1cc2c(cc1OC)CN(CCc1ccc(-n3nnc(-c4cc(OC)c(OC)cc4NC(=O)c4cc(=O)c5cc(-c6ccncc6)ccc5o4)n3)cc1)CC2 [Compound 19, N-(2-(2-(4-(2-(6,7-Dimethoxy-3,4-dihydroisoquinolin-2(1H)-yl)ethyl)phenyl)-2H-tetrazol-5-yl)-4,5-dimethoxyphenyl)-4-oxo-6-(pyridin-4-yl)-4H-chromene-2-carboxamide] | < 6.00 | < 6.00 |  |
| COc1cc2c(cc1OC)CN(CCc1ccc(NC(=O)c3cc(OC)c(OC)cc3NC(=O)c3cnc4ccccc4c3)cc1)CC2 [Tariquidar, reference compound] | > 7.00 |  |  |
